Test results reported in a melting point compilation (Tetko et al.; mined from patent text by program, amines drawn as free bases though some values may be those of a salt).

First: CC(O)CCc1ccc2c(c1)Cc1ccccc1-2 (stereo not given)
Second: N#Cc1c2c(c3c(c1N1CCCC1)CCc1ccccc1-3)-c1ccccc1C2
The melting point of the first is lower: 120 to 121 °C for the first, 220 to 222 °C for the second.

First: CCOC(=O)C(C(=O)OCC)=C1CSC2=C1SCCNC2
Second: CCOC(=O)C1=C(C)NC(CS)=C(C(=O)OCC)C1c1cccc([N+](=O)[O-])c1 (stereo not given)
The melting point of the first is lower: 87 to 89 °C for the first, 145 to 147 °C for the second.

First: Cc1cccc(-c2nn3c(c2-c2ccc(F)cc2)CC[C@H]3CO)n1
Second: O=C(O)c1cccc2cc(-c3ccc(Cl)cc3)oc12
The melting point of the first is lower: 142 to 144 °C for the first, 228 to 230 °C for the second.

First: CCCCCCCCCCc1c(C)c(C)c(-c2n[nH]c3cc(C(C)(C)C)nn23)c(C)c1C
Second: CC(C)(C)c1ccc2[nH]c(=O)c(-c3nnn[nH]3)cc2c1
The melting point of the first is lower: 194 to 195 °C for the first, 280 to 286 °C for the second.

First: O=C(O)CN1C(=O)C(=CC=Cc2ccccc2Br)SC1=S
Second: CCN1C(=O)C(=C(Cc2ccccc2)OC)SC1=S
The melting point of the first is higher: 241 to 244 °C for the first, 120 to 122 °C for the second.

Compared with `O=C(NCCC(=O)N1CCCC1)c1ccc(-c2ccc3nnn(Cc4ccc5ncccc5c4)c3n2)cc1F`, `O=C(O)c1cccc(-c2nc3sccn3c2-c2ccnc(N[C@@H]3CCCN(S(=O)(=O)c4ccc(Cl)cc4)C3)n2)c1` is higher in melting point: 151 to 153 °C for the first, 190 to 195 °C for the second.

Compared with `O=[N+]([O-])c1cnc2ccc(-c3ccccc3)cc2c1Cl`, `O=C(NCCCNc1c([N+](=O)[O-])cnc2ccccc12)c1ccccc1` is higher in melting point: 144 to 145 °C for the first, 209 to 211 °C for the second.

First: Cc1nn(CCO)c(C)c1Sc1ccc(Cl)cc1
Second: CCOC(=O)NN(C)C(=O)Nc1ccc(OCc2ccc(Cl)cc2)cc1F
The melting point of the first is lower: 88.9 to 90.3 °C for the first, 108 °C for the second.

Compared with `c1cc(-c2n[nH]c3c2Cc2ccc(CN4CCNCC4)cc2-3)cs1`, `O=C1C(=O)N(CCN2CCN(Cc3ccc(F)cc3)CC2)c2ccccc21` is higher in melting point: 125 to 130 °C for the first, 146 to 147 °C for the second.

First: CCOC(=O)c1cnn2c1c(N)nc1ccccc12
Second: CCOC(=O)c1cnc(Nc2ccccc2OCC(C)C)[nH]c1=O
The melting point of the first is higher: 235 to 237 °C for the first, 175 to 177 °C for the second.

`COC(=O)c1c(-c2cccc(F)c2)c2cc(OCc3ccccc3)ccc2c(=O)n1CC(C)C` and `CCOC(=O)C=Cc1cc(OCc2ccccc2)ccc1-c1ccc(-c2cccnc2)c(C=O)c1` cannot be ordered by melting point: 127 to 128 °C for the first, 126 to 128 °C for the second.

First: Clc1cccc(-c2ccc3cnc(Nc4ccc(N5CCOCC5)nc4)nn23)c1
Second: COc1cc(N2CCOCC2)ccc1Nc1nc(Nc2ccc3c(c2)CCCC(=O)N3C(C)C)ncc1Cl
The melting point of the first is higher: 221 to 222 °C for the first, 153 to 154 °C for the second.

First: O=C1NC(=O)C(Nc2ccc(CCNCC(O)c3cccnc3)cc2)S1 (stereo not given)
Second: N=C(N)c1ccc2c(c1)C(CCNC(=O)c1ccc(-c3ccccn3)s1)CO2 (stereo not given)
The melting point of the first is lower: 46 to 48 °C for the first, 54 to 56 °C for the second.

Compared with `CCCOC(=O)CS(=O)(=O)C=C1SC=CS1`, `CCOC(=O)CCc1ccc2cc(O)ccc2n1` is lower in melting point: 141 to 142 °C for the first, 126 to 128 °C for the second.

First: CCC(=C(c1ccc(O)cc1)c1ccc(O)cc1)c1cccc(-c2c(C)noc2C)c1
Second: COc1ccc(-c2nnc3c4ccccc4c(Nc4cccc(-c5nnn(C)n5)c4)nn23)cc1
The melting point of the first is lower: 173 to 174 °C for the first, 256 to 259 °C for the second.

First: CCc1c(C(=O)c2cc(C)cc(C)c2)n(C/C=C/CN=[N+]=[N-])c(=O)[nH]c1=O
Second: CCOC(=O)c1cc2cc(CC)ccc2[nH]1
The melting point of the first is higher: 119 to 120 °C for the first, 94 °C for the second.

Compared with `O=C(Nc1cccc([N+](=O)[O-])c1)C(=O)N1CCC(Cc2ccccc2)CC1`, `Oc1cccc([C@H]2CCCC[C@@H]2NCCc2ccccc2)c1` (racemic) is higher in melting point: 138 to 140 °C for the first, 164 to 165 °C for the second.

First: CCCN(CCCN1CCN(c2cccc(Cl)c2Cl)CC1)C1CCc2ncsc2C1 (stereo not given)
Second: Cc1c(C#N)sc2nc(CCCc3ccccc3)nc(N3CCN(C)CC3)c12
The melting point of the first is higher: 110 °C for the first, 101 to 103 °C for the second.

First: COc1ccc2c(Cc3c(Cl)cncc3Cl)nn3nnnc3c2c1
Second: COC(=O)C(C)(C)NS(=O)(=O)c1ccc2c(Cl)cnc(Cl)c2c1
The melting point of the first is higher: 275 to 276 °C for the first, 160 to 161 °C for the second.

Compared with `COC(NC(C)=O)(C(=O)OC(C)(C)C)C(Br)Br` (stereo not given), `CCC(C)(C)c1ccc(OC(C)=O)c(C2(OC(C)=O)C(=O)c3ccccc3C2=O)c1` is higher in melting point: 115 to 116 °C for the first, 146 to 151 °C for the second.

Compared with `O=C1NCC(CCc2ccccc2)O1` (stereo not given), `C=C(C)OC1CCC(=O)N1S(=O)(=O)c1ccccc1` (stereo not given) is lower in melting point: 82 to 83 °C for the first, 54 to 56 °C for the second.

Compared with `CCN(CC)C(=O)n1nc(NC)n(C)c1=O`, `Cn1c(=O)n(CC2CO2)n(CC2CO2)c1=O` (stereo not given) is higher in melting point: 83 to 85 °C for the first, 115 to 116 °C for the second.

Compared with `CCC(CC)N(O)C(=O)Nc1ccc(C)c(NC(=O)N(O)C(CC)CC)c1`, `CN(C)CCNc1ccc(NCCN(C)C)c2c1C(=O)c1c(O)ccc(O)c1C2=O` is higher in melting point: 175 to 177 °C for the first, 236 to 238 °C for the second.

First: O=C(Oc1ccc(Oc2ccccc2)cc1)Oc1ccc([N+](=O)[O-])cc1
Second: Cc1ccc(C(=O)Nc2ccccc2C#N)c([N+](=O)[O-])c1
The melting point of the first is lower: 113 to 115 °C for the first, 230 to 232 °C for the second.

First: COC(=O)c1cc(C)cc(OC)c1C1=C(OC)C(=O)c2c(O)cccc2C1=O
Second: COc1cc(C(=O)CCC(=O)c2cc(OCc3ccccc3)c(O)c(S(=O)(=O)CCO)c2)cc(OC)c1OC
The melting point of the first is higher: 165 to 167 °C for the first, 129 to 130 °C for the second.

First: CO[C@@H]1OC(C)(C)O[C@@]1(C)c1cccc(OCc2ccc3ccccc3c2)c1 (racemic)
Second: COc1ccc(Cn2c(=O)c3c(c4ccccc42)OC(C)(C)[C@@H](Br)[C@@H]3O)cc1 (relative stereo)
The melting point of the first is lower: 100 to 103 °C for the first, 146 to 147 °C for the second.

First: CN1CCN(c2ccc(Nc3ncc4c(n3)SC(=Cc3ccc(OCc5ccccc5)cc3)C(=O)N4)cc2)CC1
Second: COc1ccnc(CCc2nc3cc(-c4ccc(S(=O)(=O)Nc5ccccc5)cc4)cnc3[nH]2)c1
The melting point of the first is higher: 238 to 240 °C for the first, 231 to 233 °C for the second.

First: COc1cc2ncnc(Nc3ccc(F)c(Cl)c3)c2cc1OCC1(C)COCOC1
Second: COc1ccc(Nc2nc(NC3CCCCCC3)nc(Oc3ccccc3C#CC(C)(C)O)n2)cc1Cl
The melting point of the first is higher: 212 to 213 °C for the first, 150 to 158 °C for the second.

First: Cc1[nH]c(=S)n(Nc2ccccc2)c1-c1ccccc1
Second: CN(C)C(=O)c1nc2ccccc2n(Cc2ccccc2)c1=O
The melting point of the first is higher: 224 to 226 °C for the first, 154 to 155 °C for the second.

First: COCCSCC(=O)[C@H](Cc1ccccc1)NC(=O)[C@H](CC(C)C)NC(=O)OCc1ccccc1
Second: CC(C)c1cccc(C(C)C)c1NC(=O)Cc1ccccc1NCCc1ccccc1
The melting point of the first is lower: 68 to 69 °C for the first, 120 to 123 °C for the second.

Compared with `O=C(O)CNc1cc(C(=O)O)nc2ccccc12`, `CN(C)C(=O)NNC(=O)c1ccccc1` is lower in melting point: 260 to 261 °C for the first, 199 to 201 °C for the second.

First: O=C(Cl)c1cn(CCCCl)c(=O)c2cc(Cl)ccc12
Second: CC(=O)Nc1c(C(=O)c2cc(CO)ccn2)[nH]c2cc(Cl)ccc12
The melting point of the first is lower: 125 °C for the first, 216 to 218 °C for the second.

First: O=C1CSCC(=O)NCCNCCN1
Second: c1cnc2cc3c(cc2n1)CCNCC3
The melting point of the first is higher: 206 to 208 °C for the first, 114 to 116 °C for the second.

First: CC1(C)OC(=O)Nc2ccc(-c3ccc(C#N)[nH]3)cc21
Second: COC(=O)c1ccc(CN2CCOc3ccc([N+](=O)[O-])cc32)c(OC)c1
The melting point of the first is higher: 241 to 242 °C for the first, 130 to 132 °C for the second.

First: Nc1nc2c(s1)CCN(CC=Cc1cccc3ccccc13)CC2
Second: CCC1CCCCN1C(=O)C=Cc1c(-c2cccc(NC)c2)nn2ccccc12 (stereo not given)
The melting point of the first is higher: 178 to 180 °C for the first, 135 to 141 °C for the second.

Compared with `COc1ccc(C=O)c(F)c1OC`, `CCOC(=O)c1c(Cl)nc2cc(Cl)c(OC)cc2c1CCl` is higher in melting point: 52 to 54 °C for the first, > 250 °C for the second.

Compared with `COC(=O)C1=C(C)Nc2nc(N3CCOCC3)nc(N3CCOCC3)c2C1c1ccc([N+](=O)[O-])cc1` (stereo not given), `COc1c(C)cc(-c2cc(-c3cccnc3)c(N3CCOCC3)s2)nc1C` is lower in melting point: 236 °C for the first, 139 to 140 °C for the second.

Compared with `CCOP(=O)(OCC)N1CC2(C(=O)OC)COc3cc(C(F)(F)F)ccc3C2=N1` (stereo not given), `CC[C@@H]1C[C@H](NC(=O)OCc2ccccc2)c2cc(C(F)(F)F)ccc2N1` is higher in melting point: 85 to 86 °C for the first, 154 to 155 °C for the second.

First: CCn1cc(C(=O)O)c(=O)c2cc(Cl)c(N3CCN(c4ccccc4)CC3)cc21
Second: O=c1c(-c2cccc(C(F)(F)F)c2Cl)nn(CCCCC(F)(F)F)c2cccc(Cl)c12
The melting point of the first is higher: 234 to 235 °C for the first, 137 to 138 °C for the second.

First: COc1ccc2c(c1)/C(=C/CNC(C)=O)CCC2
Second: CCOC(=O)Nc1csc2cc(OC)ccc12
The melting point of the first is higher: 92 to 94 °C for the first, 88 °C for the second.

First: O=C(Nc1ccc(C(F)(F)F)cc1)Nc1ccc2[nH]c(C(F)(F)F)nc2c1
Second: Cc1ccc(-c2[nH]c(-c3cnc4ccccc4c3)nc2C(=O)Nc2nccs2)cc1
The melting point of the first is lower: 223 to 228 °C for the first, > 250 °C for the second.

First: Sc1nccn1Cc1ccsc1
Second: CC(=O)OC1CSC(Oc2cncc(-c3cccnc3)c2)C(OC(C)=O)C1OC(C)=O (stereo not given)
The melting point of the first is lower: 130 to 131 °C for the first, 149 °C for the second.

Compared with `OC1CCCNC1CN1CCCC1` (stereo not given), `CC1(C)Oc2cc([N+](=O)[O-])sc2C(N2CCCCC2=O)C1O` (stereo not given) is higher in melting point: 45 to 50 °C for the first, 158 °C for the second.

First: NC(=O)C1(Nc2ccc(I)cc2)CCCC1
Second: CCOC(=O)C1CN(c2ccc(OC)cc2)CC1=O (stereo not given)
The melting point of the first is higher: 148 °C for the first, 58 to 60 °C for the second.

First: COc1cc(OC)nc(Oc2cccc3c2C(=O)OC3OC(C)=O)n1 (stereo not given)
Second: CC(C)(C)C1=C(O)C(=O)c2ccccc2C1=O
The melting point of the first is higher: 119 to 120 °C for the first, 89 °C for the second.

First: CC(=O)N(C)c1c(N(C)C)cc(CC(C#N)=CNc2ccccc2)cc1N(C)C
Second: CN(C)C(=O)C(O)(C(=O)O)c1ccc(Cl)c(Cl)c1 (stereo not given)
The melting point of the first is higher: 190 to 200 °C for the first, 158 to 160 °C for the second.

First: Cc1ccc2nc(Cl)nc(NN)c2c1
Second: Cc1nsc(CCCOc2c(C)cc(-c3noc(C(F)F)n3)cc2C)n1
The melting point of the first is higher: > 280 °C for the first, 62 to 64 °C for the second.

Compared with `O=C(O)CCCCCCCCCCCCCCCCCCCCCI`, `CC(=NO)C(C)(C)NCCCNC(C)(C)C(Cn1cc(C)nc1[N+](=O)[O-])=NO` is higher in melting point: 71 to 72 °C for the first, 140 to 141 °C for the second.

Compared with `C=CCOc1cc(-n2c(OC)nc(C(F)(F)F)cc2=O)c(F)cc1Cl`, `CN(C)CCCC(=O)N1CCC(c2[nH]nc3c2C(=O)c2c(NC(=O)NN4CCOCC4)cccc2-3)CC1` is higher in melting point: 103 to 104 °C for the first, 145 to 147 °C for the second.

First: CC(=O)C1CCC2C3CCC4CC(O)C(F)CC4(C)C3C(=O)CC12C (stereo not given)
Second: Cc1ccc(-c2c(NS(=O)(=O)c3ccc(C(C)(C)C)cc3)ncnc2OCCOc2ncc(SC(C)C)cn2)cc1
The melting point of the first is higher: 174 to 178 °C for the first, 162 °C for the second.
